Non-standard residues stand in square brackets, D forms with d. Residues, ends and D or L forms follow the SMILES beside them. *: point of attachment. Phe(4-(5-CO2H-2-pyrimidyl)) = N[C@@H](Cc1ccc(-c2ncc(C(=O)O)cn2)cc1)C(=O)O; Phe(4-(4-Ac-piperazinyl)) = CC(=O)N1CCN(c2ccc(C[C@H](N)C(=O)O)cc2)CC1; dPro(4R-(4-pyridylmethyl)) = O=C(O)[C@H]1C[C@@H](Cc2ccncc2)CN1; Trp(βS-Me,4-F) = C[C@@H](c1c[nH]c2cccc(F)c12)[C@H](N)C(=O)O; Bip(4'-COOH) = N[C@@H](Cc1ccc(-c2ccc(C(=O)O)cc2)cc1)C(=O)O; Ala(1-bicyclo(1.1.1)pentyl) = N[C@@H](CC12CC(C1)C2)C(=O)O; dPro(4R-Bzl(4-F)) = O=C(O)[C@H]1C[C@@H](Cc2ccc(F)cc2)CN1; Phe(2-Cl,4-COOH) = N[C@@H](Cc1ccc(C(=O)O)cc1Cl)C(=O)O; Ala(piperazin-1-yl) = N[C@@H](CN1CCNCC1)C(=O)O; Ala(pyrimidin-5-yl) = N[C@@H](Cc1cncnc1)C(=O)O; Phe(4-COOH) = N[C@@H](Cc1ccc(C(=O)O)cc1)C(=O)O; Pro(cis-4-F) = O=C(O)[C@@H]1C[C@H](F)CN1; Ala(4-THP) = N[C@@H](CC1CCOCC1)C(=O)O; AEF = NCCOc1ccc(C[C@H](N)C(=O)O)cc1; cisHyp = O=C(O)[C@@H]1C[C@H](O)CN1; 4Pal = N[C@@H](Cc1ccncc1)C(=O)O; Isonicotinoyl = O=C(c1ccncc1)*; d(αMeS) = C[C@@](N)(CO)C(=O)O; αMeK = C[C@](N)(CCCCN)C(=O)O; Dab = NCC[C@H](N)C(=O)O; Dap = NC[C@H](N)C(=O)O; Aib = CC(C)(N)C(=O)O; Sar = CNCC(=O)O
target: T1, IL-1β (Homo sapiens, UniProt P01584); assay: IL-6 assay in MRC5 cells: inhibition of IL-1β induced IL-6 secretion (AlphaLISA); assay type: cell-based; conditions: inhibition of IL-1β induced IL-6 secretion in MRC5 cells; read-out: MRC5 IC50
T1 construct: purchased BioLegend 579404
Summary of the method: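 Compound was pre-incubated 1 h at ambient temperature with recombinant human IL-1β at 2λ EC80 before adding human lung fibroblast MRC5 cells (3000/well) in EMEM with 0.025% BSA. After overnight culture at 37 °C, 5% CO2, secreted IL-6 in conditioned medium was measured by AlphaLISA; IC50 from 4-parameter logistic fits.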

T1 sequence (P01584 117-269): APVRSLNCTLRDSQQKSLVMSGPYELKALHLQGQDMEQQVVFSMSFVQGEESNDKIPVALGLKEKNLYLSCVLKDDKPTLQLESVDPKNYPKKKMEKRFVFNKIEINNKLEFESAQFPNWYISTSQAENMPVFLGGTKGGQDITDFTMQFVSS

Row | Compound | IC50 [nM]
1 | C[C@@H](c1c[nH]c2cccc(F)c12)[C@@H]1NC(=O)[C@@H]2C[C@H](O)CN2C(=O)CNC(=O)[C@H](Cc2ccc(C(=O)O)cc2)NC(=O)[C@H](Cc2ccncc2)NC(=O)[C@H](Cc2ccc(-c3ccc(C(=O)O)cc3)cc2)NC(=O)[C@H]2C[C@@H](Cc3ccncc3)CN2C(=O)CN(C)C(=O)[C@H](CCN)NC(=O)[C@H](CCC(N)=O)NC(=O)[C@H](CC2CCOCC2)NC(=O)[C@@](C)(CO)NC(=O)[C@H](Cc2c[nH]c3ccccc23)NC(=O)[C@H](CO)NC(=O)C(C)(C)NC1=O [Example 207] (cyclo([Bip(4'-COOH)][4Pal][Phe(4-COOH)]G[cisHyp][Trp(βS-Me,4-F)][Aib]SW[d(αMeS)][Ala(4-THP)]Q[Dab][Sar][dPro(4R-(4-pyridylmethyl))])) | 0.044
2 | CC(=O)NCCOc1ccc(C[C@@H]2NC(=O)[C@H]3C[C@@H](Cc4ccc(F)cc4)CN3C(=O)CNC(=O)[C@H](CN)NC(=O)[C@H](CCC(N)=O)NC(=O)[C@H](Cc3cncnc3)NC(=O)C(C)(C)NC(=O)[C@H](Cc3c[nH]c4ccccc34)NC(=O)[C@H](CCC(=O)O)NC(=O)C(C)(C)NC(=O)[C@H]([C@@H](C)c3c[nH]c4cccc(F)c34)NC(=O)[C@@H]3C[C@H](F)CN3C(=O)CNC(=O)[C@H](Cc3ccc(C(=O)O)cc3)NC(=O)[C@H](Cc3ccncc3)NC2=O)cc1 [Example 11] (cyclo([AEF](Ac)[4Pal][Phe(4-COOH)]G[Pro(cis-4-F)][Trp(βS-Me,4-F)][Aib]EW[Aib][Ala(pyrimidin-5-yl)]Q[Dap]G[dPro(4R-Bzl(4-F))])) | 0.045
3 | CC(=O)N1CCN(c2ccc(C[C@@H]3NC(=O)[C@H]4C[C@@H](Cc5ccncc5)CN4C(=O)CNC(=O)[C@H](CCN)NC(=O)[C@H](CCC(N)=O)NC(=O)[C@H](Cc4cncnc4)NC(=O)C(C)(C)NC(=O)[C@H](Cc4c[nH]c5ccccc45)NC(=O)[C@H](CO)NC(=O)C(C)(C)NC(=O)[C@H]([C@@H](C)c4c[nH]c5cccc(F)c45)NC(=O)[C@@H]4C[C@H](F)CN4C(=O)CNC(=O)[C@H](Cc4ccc(C(=O)O)cc4Cl)NC(=O)[C@H](Cc4ccncc4)NC3=O)cc2)CC1 [Example 365] (cyclo([Phe(4-(4-Ac-piperazinyl))][4Pal][Phe(2-Cl,4-COOH)]G[Pro(cis-4-F)][Trp(βS-Me,4-F)][Aib]SW[Aib][Ala(pyrimidin-5-yl)]Q[Dab]G[dPro(4R-(4-pyridylmethyl))])) | 0.023
4 | C[C@@H](c1c[nH]c2cccc(F)c12)[C@@H]1NC(=O)[C@@H]2C[C@H](F)CN2C(=O)CNC(=O)[C@H](Cc2ccc(C(=O)O)cc2)NC(=O)[C@H](CC23CC(C2)C3)NC(=O)[C@H](Cc2ccc(-c3ccc(C(=O)O)cc3)cc2)NC(=O)[C@H]2C[C@@H](Cc3ccc(F)cc3)CN2C(=O)CNC(=O)[C@H](CO)NC(=O)[C@H](CCC(N)=O)NC(=O)[C@H](CN2CCNCC2)NC(=O)[C@](C)(CCCCN)NC(=O)[C@H](Cc2c[nH]c3ccccc23)NC(=O)[C@H](CO)NC(=O)C(C)(C)NC1=O [Example 175] (cyclo([Bip(4'-COOH)][Ala(1-bicyclo(1.1.1)pentyl)][Phe(4-COOH)]G[Pro(cis-4-F)][Trp(βS-Me,4-F)][Aib]SW[αMeK][Ala(piperazin-1-yl)]QSG[dPro(4R-Bzl(4-F))])) | 0.037
5 | C[C@@H](c1c[nH]c2cccc(F)c12)[C@@H]1NC(=O)[C@@H]2C[C@H](F)CN2C(=O)CNC(=O)[C@H](Cc2ccc(C(=O)O)cc2)NC(=O)[C@H](CC23CC(C2)C3)NC(=O)[C@H](Cc2ccc(-c3ncc(C(=O)O)cn3)cc2)NC(=O)[C@H]2C[C@@H](Cc3ccc(F)cc3)CN2C(=O)CNC(=O)[C@H](CCN)NC(=O)[C@H](CCC(N)=O)NC(=O)[C@H](Cc2ccncc2)NC(=O)C(C)(C)NC(=O)[C@H](Cc2c[nH]c3ccccc23)NC(=O)[C@H](CO)NC(=O)C(C)(C)NC1=O [Example 84] (cyclo([Phe(4-(5-CO2H-2-pyrimidyl))][Ala(1-bicyclo(1.1.1)pentyl)][Phe(4-COOH)]G[Pro(cis-4-F)][Trp(βS-Me,4-F)][Aib]SW[Aib][4Pal]Q[Dab]G[dPro(4R-Bzl(4-F))])) | 0.047

Further molecules by falling IC50, results first:

Row | IC50 [nM] | Compound
6 | 0.018 | C[C@@H](c1c[nH]c2cccc(F)c12)[C@@H]1NC(=O)[C@@H]2C[C@H](F)CN2C(=O)CNC(=O)[C@H](Cc2ccc(C(=O)O)cc2)NC(=O)[C@H](Cc2ccncc2)NC(=O)[C@H](Cc2ccc(OCCNC(=O)c3ccncc3)cc2)NC(=O)[C@H]2C[C@@H](Cc3ccncc3)CN2C(=O)CNC(=O)[C@H](CCN)NC(=O)[C@H](CCC(N)=O)NC(=O)[C@H](Cc2cncnc2)NC(=O)C(C)(C)NC(=O)[C@H](Cc2c[nH]c3ccccc23)NC(=O)[C@H](CO)NC(=O)C(C)(C)NC1=O [Example 307] (cyclo([AEF](Isonicotinoyl)[4Pal][Phe(4-COOH)]G[Pro(cis-4-F)][Trp(βS-Me,4-F)][Aib]SW[Aib][Ala(pyrimidin-5-yl)]Q[Dab]G[dPro(4R-(4-pyridylmethyl))]))
7 | 0.017 | CC(=O)NCCOc1ccc(C[C@@H]2NC(=O)[C@H]3C[C@@H](Cc4ccncc4)CN3C(=O)CNC(=O)[C@H](CCN)NC(=O)[C@H](CCC(N)=O)NC(=O)[C@H](Cc3ccc(O)cc3)NC(=O)C(C)(C)NC(=O)[C@H](Cc3c[nH]c4ccccc34)NC(=O)[C@H](CCC(=O)O)NC(=O)C(C)(C)NC(=O)[C@H]([C@@H](C)c3c[nH]c4cccc(F)c34)NC(=O)[C@@H]3C[C@H](F)CN3C(=O)CNC(=O)[C@H](Cc3ccc(C(=O)O)cc3)NC(=O)[C@H](Cc3ccncc3)NC2=O)cc1 [Example 310] (cyclo([AEF](Ac)[4Pal][Phe(4-COOH)]G[Pro(cis-4-F)][Trp(βS-Me,4-F)][Aib]EW[Aib]YQ[Dab]G[dPro(4R-(4-pyridylmethyl))]))

Reference: patent US20260242419A1, “A CYCLIC PEPTIDE FOR TRAPPING INTERLEUKIN-1 BETA” (Merck Sharp & Dohme LLC, priority 2023, published 2026)
